The conditions of the series: Crystal; visual observation.

± gives the expanded uncertainty stated by the source.

With `COc1ccc2[nH]c([S+]([O-])Cc3ncc(C)c(OC)c3C)nc2c1` (stereo unspecified) [Omeprazole], the Normal melting temperature worked out at 156.00 ± 2.1 °C.

(Values after the NIST ThermoML archive (doi:10.1016/j.jct.2015.11.005).)
